# According to ChEMBL document CHEMBL3885881, “DrugMatrix”:
# Species on record: Rattus norvegicus
# Type: toxicity, organism-based, Sprague-Dawley
# Conditions: in vivo, po, 24 h, route oral GAVAGE, time 1 day, vehicle .5 % CMC; for ABSOLUTE EOSINOPHIL / ABSOLUTE LYMPHOCYTE / ABSOLUTE MONOCYTE / BASOPHIL / EOSINOPHIL / ERYTHROCYTE COUNT / HEMATOCRIT / HEMOGLOBIN / LEUKOCYTE COUNT / LYMPHOCYTE / MEAN CORPUSCULAR HEMOGLOBIN / MEAN CORPUSCULAR HEMOGLOBIN CONCENTRATION / MEAN CORPUSCULAR VOLUME / MONOCYTE / NEUTROPHIL / PLATELET COUNT / ABSOLUTE BASOPHIL: tissue Blood; for ALANINE AMINOTRANSFERASE / ALBUMIN / ALKALINE PHOSPHATASE / ASPARTATE AMINOTRANSFERASE / BLOOD UREA NITROGEN / CARBON DIOXIDE / CHLORIDE / CHOLESTEROL / CREATINE PHOSPHOKINASE / CREATININE / GLUCOSE / LACTATE DEHYDROGENASE / LIPASE / PHOSPHORUS / POTASSIUM / SODIUM / TOTAL BILIRUBIN / TOTAL PROTEIN / URIC ACID: tissue Plasma
# Description: DrugMatrix - Regimen: Single
smiles,measurement,setting,value
CN(C)CCN(Cc1cccs1)c1ccccn1,ABSOLUTE EOSINOPHIL,"0 mg/kg, dose level Control",47.5 cells/µL
same,ABSOLUTE LYMPHOCYTE,"0 mg/kg, dose level Control",8340 cells/µL
same,ABSOLUTE MONOCYTE,"0 mg/kg, dose level Control",260 cells/µL
same,BASOPHIL,"0 mg/kg, dose level Control",0.33%
same,EOSINOPHIL,"0 mg/kg, dose level Control",0.45%
same,ERYTHROCYTE COUNT,"0 mg/kg, dose level Control",6.31 x10E6/uL
same,HEMATOCRIT,"0 mg/kg, dose level Control",42.88%
same,HEMOGLOBIN,"0 mg/kg, dose level Control",13 G/DL
same,LEUKOCYTE COUNT,"0 mg/kg, dose level Control",10.38 x10E3/uL
same,LYMPHOCYTE,"0 mg/kg, dose level Control",80.53%
same,MEAN CORPUSCULAR HEMOGLOBIN,"0 mg/kg, dose level Control",20.6 pg
same,MEAN CORPUSCULAR HEMOGLOBIN CONCENTRATION,"0 mg/kg, dose level Control",30.3 G/DL
same,MEAN CORPUSCULAR VOLUME,"0 mg/kg, dose level Control",67.9 fL
same,MONOCYTE,"0 mg/kg, dose level Control",2.4%
same,NEUTROPHIL,"0 mg/kg, dose level Control",15.08%
same,PLATELET COUNT,"0 mg/kg, dose level Control",1192.5 x10E3/uL
same,ALANINE AMINOTRANSFERASE,"0 mg/kg, dose level Control",47 u/L
same,ALBUMIN,"0 mg/kg, dose level Control",3.55 G/DL
same,ALKALINE PHOSPHATASE,"0 mg/kg, dose level Control",460.75 u/L
same,ASPARTATE AMINOTRANSFERASE,"0 mg/kg, dose level Control",71.75 u/L
same,BLOOD UREA NITROGEN,"0 mg/kg, dose level Control",13.75 mg/dL
same,CARBON DIOXIDE,"0 mg/kg, dose level Control",36.75 mmol/L
same,CHLORIDE,"0 mg/kg, dose level Control",107.25 MEQ/L
same,CHOLESTEROL,"0 mg/kg, dose level Control",85.25 mg/dL
same,CREATINE PHOSPHOKINASE,"0 mg/kg, dose level Control",373 u/L
same,CREATININE,"0 mg/kg, dose level Control",0.67 mg/dL
same,GLUCOSE,"0 mg/kg, dose level Control",173.25 mg/dL
same,LACTATE DEHYDROGENASE,"0 mg/kg, dose level Control",241.25 u/L
same,LIPASE,"0 mg/kg, dose level Control",39.25 u/L
same,PHOSPHORUS,"0 mg/kg, dose level Control",13.5 mg/dL
same,POTASSIUM,"0 mg/kg, dose level Control",6.9 MEQ/L
same,SODIUM,"0 mg/kg, dose level Control",153 MEQ/L
same,TOTAL BILIRUBIN,"0 mg/kg, dose level Control",0.3 mg/dL
same,TOTAL PROTEIN,"0 mg/kg, dose level Control",6.05 G/DL
same,URIC ACID,"0 mg/kg, dose level Control",1.07 mg/dL
same,ABSOLUTE BASOPHIL,"10 mg/kg, dose level Low",50 cells/µL
same,ABSOLUTE EOSINOPHIL,"10 mg/kg, dose level Low",57.5 cells/µL
same,ABSOLUTE LYMPHOCYTE,"10 mg/kg, dose level Low",6900 cells/µL
same,ABSOLUTE MONOCYTE,"10 mg/kg, dose level Low",160 cells/µL
same,BASOPHIL,"10 mg/kg, dose level Low",0.62%
same,EOSINOPHIL,"10 mg/kg, dose level Low",0.68%
same,ERYTHROCYTE COUNT,"10 mg/kg, dose level Low",6.69 x10E6/uL
same,HEMATOCRIT,"10 mg/kg, dose level Low",45.23%
same,HEMOGLOBIN,"10 mg/kg, dose level Low",13.75 G/DL
same,LEUKOCYTE COUNT,"10 mg/kg, dose level Low",8.71 x10E3/uL
same,LYMPHOCYTE,"10 mg/kg, dose level Low",79.03%
same,MEAN CORPUSCULAR HEMOGLOBIN,"10 mg/kg, dose level Low",20.57 pg
same,MEAN CORPUSCULAR HEMOGLOBIN CONCENTRATION,"10 mg/kg, dose level Low",30.38 G/DL
same,MEAN CORPUSCULAR VOLUME,"10 mg/kg, dose level Low",67.67 fL
same,MONOCYTE,"10 mg/kg, dose level Low",1.82%
same,NEUTROPHIL,"10 mg/kg, dose level Low",16.77%
same,PLATELET COUNT,"10 mg/kg, dose level Low",1228.25 x10E3/uL
same,ALANINE AMINOTRANSFERASE,"10 mg/kg, dose level Low",48.75 u/L
same,ALBUMIN,"10 mg/kg, dose level Low",3.7 G/DL
same,ALKALINE PHOSPHATASE,"10 mg/kg, dose level Low",472.25 u/L
same,ASPARTATE AMINOTRANSFERASE,"10 mg/kg, dose level Low",65.25 u/L
same,BLOOD UREA NITROGEN,"10 mg/kg, dose level Low",13 mg/dL
same,CARBON DIOXIDE,"10 mg/kg, dose level Low",38.5 mmol/L
same,CHLORIDE,"10 mg/kg, dose level Low",107.25 MEQ/L
same,CHOLESTEROL,"10 mg/kg, dose level Low",86.75 mg/dL
same,CREATINE PHOSPHOKINASE,"10 mg/kg, dose level Low",250.75 u/L
same,CREATININE,"10 mg/kg, dose level Low",0.67 mg/dL
same,GLUCOSE,"10 mg/kg, dose level Low",167 mg/dL
same,LACTATE DEHYDROGENASE,"10 mg/kg, dose level Low",129.25 u/L
same,LIPASE,"10 mg/kg, dose level Low",38.5 u/L
same,PHOSPHORUS,"10 mg/kg, dose level Low",12.45 mg/dL
same,POTASSIUM,"10 mg/kg, dose level Low",6.83 MEQ/L
same,SODIUM,"10 mg/kg, dose level Low",153.75 MEQ/L
same,TOTAL BILIRUBIN,"10 mg/kg, dose level Low",0.3 mg/dL
same,TOTAL PROTEIN,"10 mg/kg, dose level Low",6.32 G/DL
same,URIC ACID,"10 mg/kg, dose level Low",0.98 mg/dL
same,ABSOLUTE BASOPHIL,"100 mg/kg, dose level High",130 cells/µL
same,ABSOLUTE EOSINOPHIL,"100 mg/kg, dose level High",55 cells/µL
same,ABSOLUTE LYMPHOCYTE,"100 mg/kg, dose level High",9590 cells/µL
same,ABSOLUTE MONOCYTE,"100 mg/kg, dose level High",430 cells/µL
same,BASOPHIL,"100 mg/kg, dose level High",0.95%
same,EOSINOPHIL,"100 mg/kg, dose level High",0.5%
same,ERYTHROCYTE COUNT,"100 mg/kg, dose level High",6.9 x10E6/uL
same,HEMATOCRIT,"100 mg/kg, dose level High",46.1%
same,HEMOGLOBIN,"100 mg/kg, dose level High",14.12 G/DL
same,LEUKOCYTE COUNT,"100 mg/kg, dose level High",11.89 x10E3/uL
same,LYMPHOCYTE,"100 mg/kg, dose level High",80.6%
same,MEAN CORPUSCULAR HEMOGLOBIN,"100 mg/kg, dose level High",20.48 pg
same,MEAN CORPUSCULAR HEMOGLOBIN CONCENTRATION,"100 mg/kg, dose level High",30.62 G/DL
same,MEAN CORPUSCULAR VOLUME,"100 mg/kg, dose level High",66.9 fL
same,MONOCYTE,"100 mg/kg, dose level High",3.62%
same,NEUTROPHIL,"100 mg/kg, dose level High",12.9%
same,PLATELET COUNT,"100 mg/kg, dose level High",1177.75 x10E3/uL
same,ALANINE AMINOTRANSFERASE,"100 mg/kg, dose level High",102.25 u/L
same,ALBUMIN,"100 mg/kg, dose level High",3.6 G/DL
same,ALKALINE PHOSPHATASE,"100 mg/kg, dose level High",460.75 u/L
same,ASPARTATE AMINOTRANSFERASE,"100 mg/kg, dose level High",150.5 u/L
same,BLOOD UREA NITROGEN,"100 mg/kg, dose level High",13.5 mg/dL
same,CARBON DIOXIDE,"100 mg/kg, dose level High",37.75 mmol/L
same,CHLORIDE,"100 mg/kg, dose level High",108 MEQ/L
same,CHOLESTEROL,"100 mg/kg, dose level High",61.5 mg/dL
same,CREATINE PHOSPHOKINASE,"100 mg/kg, dose level High",211.25 u/L
same,CREATININE,"100 mg/kg, dose level High",0.67 mg/dL
same,GLUCOSE,"100 mg/kg, dose level High",169.5 mg/dL
same,LACTATE DEHYDROGENASE,"100 mg/kg, dose level High",94.25 u/L
same,LIPASE,"100 mg/kg, dose level High",24.75 u/L
same,PHOSPHORUS,"100 mg/kg, dose level High",13.18 mg/dL
same,POTASSIUM,"100 mg/kg, dose level High",7.25 MEQ/L
same,SODIUM,"100 mg/kg, dose level High",154.25 MEQ/L
same,TOTAL BILIRUBIN,"100 mg/kg, dose level High",0.3 mg/dL
same,TOTAL PROTEIN,"100 mg/kg, dose level High",6.08 G/DL
same,URIC ACID,"100 mg/kg, dose level High",1.07 mg/dL
